Molecular target: T1, hROMK1 (Kir1.1) (Homo sapiens, UniProt P48048)
T1 construct: expressed in transfected cells
T1 sequence (P48048 1-391): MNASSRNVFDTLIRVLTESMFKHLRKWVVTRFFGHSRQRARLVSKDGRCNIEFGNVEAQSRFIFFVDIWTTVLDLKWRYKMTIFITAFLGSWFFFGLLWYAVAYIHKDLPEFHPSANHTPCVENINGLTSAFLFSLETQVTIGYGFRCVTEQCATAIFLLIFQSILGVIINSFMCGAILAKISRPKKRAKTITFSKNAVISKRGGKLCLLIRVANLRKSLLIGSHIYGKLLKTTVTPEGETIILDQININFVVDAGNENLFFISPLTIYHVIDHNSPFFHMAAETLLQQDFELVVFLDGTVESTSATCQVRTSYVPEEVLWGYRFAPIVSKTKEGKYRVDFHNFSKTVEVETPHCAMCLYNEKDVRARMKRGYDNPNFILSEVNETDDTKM
Assay: ^86Rb^+ Efflux Assay
Type: cell-based
Settings: CHO-DHFR- cells stably expressing hROMK1; potency ranges
Description: Several assays may be used to measure functional inhibition of the ROMK channel by compounds of the instant invention. One primary assay that can be used is a functional ^86Rb^+ efflux assay that measures the ability of ROMK to permeate ^86Rb^+, in the absence or presence of test compound. Under control conditions, cells loaded with ^86Rb^+ and incubated in Rb^+-free medium display a time-dependent efflux of the isotope, the rate of which depends on number of functional channels. When cells are incubated in the presence of a channel inhibitor, efflux of ^86Rb^+ is prevented in a concentration-dependent manner, and IC50 values of inhibition by compounds can be accurately determined. This assay has been established with cell lines expressing either human, rat or dog ROMK channels, and can operate in 96- or 384-well format. Importantly, the human, rat, and dog ^86Rb^+ efflux assays can be carried out in the presence of up to 100% serum allowing, therefore, an accurate estimation of the effect of protein binding on the inhibitory activity of compounds of interest. Another ROMK functional assay makes use of the ability of thallium to permeate through open ROMK channels and increase the fluorescence of a dye previously loaded into the cells. Under control conditions, cells loaded with dye and exposed to thallium-containing medium display a time-dependent increase in fluorescence, the rate of which depends on number of functional channels. When cells are incubated in the presence of a channel inhibitor, the increase in fluorescence is attenuated in a concentration-dependent manner, and IC50 values of inhibition by compounds can be accurately determined. This assay has been established with cell lines expressing either human, or rat ROMK channels, and operates in 384-well format. Another assay for evaluation of the compounds of the instant invention and for evaluation of mechanism of action of compounds of Formula I relies on the measurement of the electrical current that is generated as potassium permeates through the channel. For these electrophysiological experiments, three different platforms, IonWorks, QPatch, or manual patch clamp, are used, depending on the experimental protocol under consideration. IonWorks operates in a 384-well format and allows accurate determination of IC50 values for inhibitors.
CHO-DHFR-cells stably expressing hROMK1 (Kir1.1) were grown at 37° C. in a 10% CO2 humidified incubator in Iscove's Modified Dulbecco's Medium (Gibco 12440) supplemented with HT Supplement, Penicillin/Streptomycin/Glutamine, G418 (500 μg/ml) and 10% FBS. Cells were seeded in Sterile and Tissue Culture Treated Packard CulturPlate White Opaque Microplates at a concentration of 5.0E5-7.0E5 cells/ml—PerkinElmer 6005680 (96-well); Corning 3707 (384 well) in complete media containing 1.5 μCi/ml Rubidium-86. Cells were incubated in 37° C.-10% CO2 incubator overnight. On the day of the experiment, the media was removed and cells washed with low K assay buffer. ^86Rb^+ efflux was initiated after addition of assay buffer±test compound followed by 35 min incubation at room temperature. ROMK-sensitive component of efflux was defined in the presence of 10 mM BaCl2. Assay buffer was removed and transferred to a plate and cells were solubilized in the presence of SDS. Radioactivity associated with assay and cell plate was determined.
• 1. Removed cell media and washed cells with low K assay buffer (126.9 mM NaCl, 4.6 mM KCl, 2 mM CaCl2, 1 mM MgCl2, 10 mM Hepes/NaOH; pH 7.4) • 200 μl for 96-well plate; 70 μl for 384-well plate • 2. Added assay buffer (121.5 mM NaCl, 10 mM KCl, 2 mM CaCl2, 1 mM MgCl2, 10 mM Hepes/NaOH; pH 7.4)±test compound to cells • 100 μl for 96-well plate; 50 μl for 384-well plate • 3. Incubated at ambient temperature (22-24° C.) for 35 min • 4.

Structure (SMILES)	IC50 [nM]
Cc1c(CCC2(O)CCN(C(=O)Cc3ccc(-n4cnnn4)cc3)CC2)ccc(F)c1C#N [Example 37, 6-Fluoro-3-[2-(4-hydroxy-1-{[4-(1H-tetrazol-1-yl)phenyl]acetyl}piperidin-4-yl)ethyl]-2-methylbenzonitrile]	≤ 500
N#Cc1cc(/C=C/C2CCN(C(=O)Cc3ccc4c(c3)COC4=O)CC2)ccc1F [Example 48, 2-Fluoro-5-[(E)-2-{1-[(1-oxo-1,3-dihydro-2-benzofuran-5-yl)acetyl]piperidin-4-yl}ethenyl]benzonitrile]	≤ 500
O=C1OCc2c1ccc(CCC1CCN(C(=O)Cc3ccc(-n4cnnn4)cc3)CC1)c2Br [Example 59, 4-Bromo-5-[2-(1-{[4-(1H-tetrazol-1-yl)phenyl]acetyl}piperidin-4-yl)ethyl]-2-benzofuran-1(3H)-one]	≤ 200
O=C(Cc1ccc(-n2cnnn2)cc1)N1CCC(O)(CCc2ccc3nonc3c2)CC1 [Example 8, 1-{4-[2-(2,1,3-Benzoxadiazol-5-yl)ethyl]-4-hydroxypiperidin-1-yl}-2-[4-(1H-tetrazol-1-yl)phenyl]ethanone]	≤ 500
N#Cc1cc(CCC2(C(F)F)CCN(C(=O)Cc3ccc(-n4cnnn4)cc3)CC2)ccc1F [Example 27, 5-{2-[4-(Difluoromethyl)-1-{[4-(1H-tetrazol-1-yl)phenyl]acetyl}piperidin-4-yl]ethyl}-2-fluorobenzonitrile]	≤ 500
O=C1OCc2cc(OCC3CCN(C(=O)Cc4ccc(-n5cnnn5)cc4)CC3)ccc21 [Example 55, 5-[(1-{[4-(1H-Tetrazol-1-yl)phenyl]acetyl}piperidin-4-yl)methoxy]-2-benzofuran-1(3H)-one]	≤ 200
COc1cc(CC(=O)N2CCC(/C=C/c3ccc4c(c3)COC4=O)CC2)ccc1C#N [Example 52, 2-Methoxy-4-(2-oxo-2-(4-[(E)-2-(1-oxo-1,3-dihydro-2-benzofuran-5-yl)ethenyl]piperidin-1-yl}ethyl]benzonitrile]	≤ 500
COc1cc(CC(=O)N2CCC(CCc3ccc4c(c3)CCOC4=O)CC2)c(F)cc1C#N [Example 67, 5-Fluoro-2-methoxy-4-(2-oxo-2-{4-[2-(1-oxo-3,4-dihydro-1H-isochromen-6-yl)ethyl]piperidin-1-yl}ethyl)benzonitrile]	≤ 500
O=C1OCc2cc(CCC3CCN(C(=O)C4CCc5cc(-n6cnnn6)ccc54)CC3)ccc21 (stereo not shown) [Example 72, 5-[2(1-{[5(1H-Tetrazol-1-yl)-2,3-dihydro-1H-inden-yl]carbonyl}piperidin-4-yl)ethyl]-2-benzofuran-1(3H)-one]	≤ 200
N#Cc1cc(CCC2(CO)CCN(C(=O)Cc3ccc(-n4cnnn4)cc3)CC2)ccc1F [Example 26, 2-Fluoro-5-{2-[4-(hydroxymethyl)-1-{[4-(1H-tetrazol-1-yl)phenyl]acetyl}piperidin-4-yl]ethyl}benzonitrile]	≤ 500
Cc1c(/C=C/C2CCN(C(=O)Cc3ccc(-n4cnnn4)cc3)CC2)ccc2c1COC2=O [Example 41, 4-Methyl-5-[(E)-2-(1-{[4-(1H-tetrazol-1-yl)phenyl]acetyl}piperidin-4-yl)ethenyl]-2-benzofuran-1(3H)-one]	≤ 200
N#Cc1cc(C#CC2(O)CCN(C(=O)Cc3ccc(-n4cnnn4)cc3)CC2)ccc1F [Example 10, 2-Fluoro-5-[(4-hydroxy-1-{[4-(1H-tetrazol-1-yl)phenyl]acetyl}piperidin-4-yl)ethynyl]benzonitrile]	≤ 500
O=C1OCc2cc(/C=C/C3CCN(C(=O)Cc4ccc(-n5cnnn5)cc4)CC3)ccc21 [Example 6]	≤ 200
CCOC(=O)C1(CCc2ccc(F)c(C#N)c2)CCN(C(=O)Cc2ccc(-n3cnnn3)cc2)CC1 [Example 15, Ethyl 4-[2-(3-cyano-4-fluorophenyl)ethyl]-1-{[4-(1H-tetrazol-1-yl)phenyl]acetyl}piperidine-4-carboxylate]	≤ 500
O=C1OCc2cc(CCC3CCN(C(=O)Cc4ccc(-n5cnnn5)cc4)CC3)ccc21 [Example 7, 5-[2-(1-{[4-(1H-Tetrazol-1-yl)phenyl]acetyl}piperidin-4-yl)ethyl]-2-benzofuran-1(3H)-one]	≤ 500
O=C1OCc2cc(SC3CCN(C(=O)Cc4ccc(-n5cnnn5)cc4)CC3)ccc21 [Example 51, 5-[(1-{[4-(1H-Tetrazol-1-yl)phenyl]acetyl}piperidin-4-yl)sulfanyl]-2-benzofuran-1(3H)-one]	≤ 500
N#Cc1cc(CCC2(O)CCN(C(=O)Cc3ccc(-n4cnnn4)cc3C(F)(F)F)CC2)ccc1F [Example 31, 2-Fluoro-5-[2-(4-hydroxy-1-{[4-(1H-tetrazol-1-yl)-2-(trifluoromethyl)phenyl]acetyl}piperidin-4-yl)ethyl]benzonitrile]	≤ 500
N#Cc1c(F)ccc(CCC2(O)CCN(C(=O)Cc3ccc(-n4cnnn4)cc3)CC2)c1F [Example 34, 2,6-Difluoro-3-[2-(4-hydroxy-1-{[4-(1H-tetrazol-1-yl)phenyl]acetyl}piperidin-4-yl)ethyl]benzonitrile]	≤ 500
O=C(Cc1ccc(-n2cnnn2)cc1)N1CCC(CCc2ccc([N+](=O)[O-])cc2)CC1 [Example 4, 2-(4-(1H-Tetrazol-1-yl)phenyl)-1-(4-(4-nitrophenethyl)piperidin-1-yl)ethanone]	≤ 200
O=C1OCc2cc(/C=C/C3CCN(C(=O)Cc4ccc5c(c4)COC5=O)CC3)ccc21 [Example 47, 5-[(E)-2-{1-[(1-Oxo-1,3-dihydro-2-benzofuran-5-yl)acetyl]piperidin-4-}ethenyl]-2-benzofuran-1(3H)-one]	≤ 500
N#Cc1cc(CCC2(O)CCN(CCc3ccc4c(c3)COC4=O)CC2)ccc1F [Example 30, 2-Fluoro-5-(2-{4-hydroxy-1-[2-(1-oxo-1,3-dihydro-2-benzofuran-5-yl)ethyl]piperidin-4-yl}ethyl)benzonitrile]	≤ 200
O=[N+]([O-])c1ccc(CCC2CCN(CCc3ccc([N+](=O)[O-])cc3)CC2)cc1 [Example 3, 1,4-bis[2-(4-Nitrophenyl)ethyl]piperidine]	≤ 200

Reference: patent US9527830B2 (Merck Sharp & Dohme Corp., priority 2011, dated 2016)
